According to patent EP0497921B1, “METHOD FOR INHIBITING ENZYMATIC SYNTHESIS OF NUCLEIC ACIDS USING ISOPSORALENS” (ISAACS, Stephen T., priority 1989, dated 1991):

Legend:
tRNA = assay: Photobinding to RNA; assay type: binding; conditions: 100 µg/ml, irradiated 30 minutes; 1-10 µg treated tRNA spotted; no signal from unirradiated controls
Experimental: This example describes photobinding of ^3H-AMIP, ^3H-AMDMIP and BIOMIP to RNA. A tRNA stock was prepared at a concentration of 765 µg/ml in 1 x TE / 10 mM NaCl. Appropriate amounts of each compound were prepared in separate reaction vessels such that upon addition of 200 µl of the tRNA solution (153 µg) the final concentration of each compound was 100 µg/ml. ^3H-AMIP and […] in the experiment; the BIOMIP used was unlabelled. Each reaction vessel was then irradiated for 30 minutes at 25 °C in the CE-III device. Identical unirradiated reaction mixtures were used as controls for each compound. Following irradiation, each mixture was extracted with CHCl3 (4 x 200 µl) then precipitated (X2). The pellets were resuspended in 1 x TE and the binding levels determined as follows. For the two labelled compounds (^3H-AMDMIP and ^3H-AMIP), the nucleic acid concentration was determined optically and radioactivity measured by scintillation counting of aliquots of the stock solutions. Binding of the compounds was then calculated to be as follows:
To determine if binding of BIOMIP to tRNA has occurred, it was necessary to use a non-radioactive format which detected the biotin moiety on the compound. A commercial kit ("BluGene"; BRL) was used for this purpose. The kit instructions were followed for detection of both the control DNA (supplied with the kit) and BIOMIP treated tRNA. […]

PCR'd MACS 1555 = assay: Inhibition of PCR by non-psoralen compounds in the absence of light; assay type: biochemical; conditions: 30 cycles
From the text: The compounds tested were the following: 1) ethidium bromide (a Phenanthridine, see Table 1), 2) xylene cylanol (an Organic Dye, see Table 1), 3) bromphenol blue (an Organic Dye, see Table 1), 4) coumarin and 5) methylene blue (a Phenazathionium Salt, see Table 1).
A separate experiment examined PCR inhibition with coumarin and methylene blue in the absence of light. The following concentrations of methylene blue were tried: 4.3 x 10^-2, 4.3 x 10^-3, 4.3 x 10^-4 and 4.3 x 10^-5 M. Concentrations of coumarin tried included: 7 x 10^-3, 7 x 10^-4, 7 x 10^-5 and 7 x 10^-6 M. Compound was added to PCR tube containing α-^32P-dCTP and target (1 µl […].; PCR'd MACS 1555 per assay-point). PCR was carried out for 30 x cycles. Samples were loaded onto a 12% / 8 M urea gel.

Row | Compound | binding to tRNA detected via biotin moiety (BluGene kit) (tRNA) | inhibition of PCR in the absence of light (PCR'd MACS 1555)
1 | 5-N-[N,N'-Dimethyl-(6-[biotinamido]-hexanoate) -1,6-hexanediamine])-methyl-isopsoralen [BIOMIP] | covalently bound to the tRNA | 
2 | O=c1ccc2ccccc2o1 [Coumarin, coumarin] |  | did not inhibit PCR at any of the concentrations tested
